In brackets after ≈: the same amount, converted by molar mass.
Legend:
Staphylococcus aureus [1] = assay: Antibacterial activity against VanA-type vancomycin-resistant Staphylococcus aureus isolate 1 harboring vanA operon
Staphylococcus aureus [2] = assay: Antibacterial activity against VanA-type vancomycin-resistant Staphylococcus aureus isolate 2 harboring vanA operon
Staphylococcus aureus [3] = assay: Antibacterial activity against VanA-type vancomycin-resistant Staphylococcus aureus isolate 3 harboring vanA operon
Staphylococcus aureus [4] = assay: Antibacterial activity against high-level-resistant vancomycin-resistant Staphylococcus aureus harboring Tn1546 element

CN[C@H](CC(C)C)C(=O)N[C@H]1C(=O)N[C@@H](CC(N)=O)C(=O)N[C@H]2C(=O)N[C@H]3C(=O)N[C@H](C(=O)N[C@H](C(=O)O)c4cc(O)cc(O)c4-c4cc3ccc4O)[C@H](O)c3ccc(c(Cl)c3)Oc3cc2cc(c3O[C@@H]2O[C@H](CO)[C@@H](O)[C@H](O)[C@H]2O[C@H]2C[C@](C)(N)[C@H](O)[C@H](C)O2)Oc2ccc(cc2Cl)[C@H]1O [VANCOMYCIN] showed an MIC (Staphylococcus aureus [1]) of over 256 µg/mL, an MIC (Staphylococcus aureus [2]) of 32 µg/mL (≈ 22.1 µM) and an MIC (Staphylococcus aureus [3]) of 64 µg/mL (≈ 44.2 µM). It also gave an MIC (Staphylococcus aureus [4]) of over 256 µg/mL.

— ChEMBL document CHEMBL1671658, “VanA-type vancomycin-resistant Staphylococcus aureus” (2009)
